Laboratory results from US20110257168A1, “DERIVATIVES OF OXABISPIDINE AS NEURONAL NICOTINIC ACETYLCHOLINE RECEPTOR LIGANDS” (Targacept, Inc., priority 2008, published 2011).
Like-named read-outs stand apart in the source and are kept apart here.

What was measured:
[1] = biological target: human α4β2 (Homo sapiens, UniProt P17787+P43681); experiment: Competition binding to human α4β2 receptors in membrane preparations
Description: (§1) SH-EP1/human α4β2 (Eaton et al., 2003), SH-EP1/human α4β4 (Gentry et al., 2003), SH-EP1/α6β3β4α5 (Grinevich et al., 2005), TE671/RD and SH-SY5Y cell lines (obtained from Dr. Ron Lukas, Barrow Neurological Institute) were maintained in proliferative growth phase in Dulbecco's modified Eagle's medium (Gibco/BRL) with 10% horse serum (Gibco BRL), 5% fetal bovine serum (HyClone, Logan Utah), 1 mM sodium pyruvate, 4 mM L-glutamine. For maintenance of stable transfectants, the α4β2 and α4β4 cell media was supplemented with 0.25 mg/mL zeocin and 0.13 mg/mL hygromycin B. Selection was maintained for the α6β3β4α5 cells with 0.25 mg/mL of zeocin, 0.13 mg/mL of hygromycin B, 0.4 mg/mL of geneticin, and 0.2 mg/mL of blasticidin. HEK/human α7/RIC3 cells (obtained from J. Lindstrom, U. Pennsylvania) were maintained in proliferative growth phase in Dulbecco's modified Eagle's medium (Gibco/BRL) with 10% fetal bovine serum (HyClone, Logan Utah), 1 mM sodium pyruvate, 4 mM L-glutamine, 0.4 mg/mL geneticin; 0.2 mg/ml hygromycin B.
(§2) Preparation of membranes from rat tissues. Rat cortices were obtained from Analytical Biological Services, Incorporated (ABS, Wilmington, Del.). Tissues were dissected from female Sprague-Dawley rats, frozen and shipped on dry ice. Tissues were stored at −20° C. until needed for membrane preparation. Cortices from 10 rats were pooled and homogenized by Polytron (Kinematica GmbH, Switzerland) in 10 volumes (weight:volume) of ice-cold preparative buffer (KCl, 11 mM; KH2PO4, 6 mM; NaCl 137 mM; Na2HPO4 8 mM; HEPES (free acid), 20 mM; iodoacetamide, 5 mM; EDTA, 1.5 mM; 0.1 mM PMSF pH 7.4). The resulting homogenate was centrifuged at 40,000 g for 20 minutes at 4° C. and the resulting pellet was resuspended in 20 volumes of ice-cold water. After 60-minute incubation at 4° C., a new pellet was collected by centrifugation at 40,000 g for 20 minutes at 4° C. The final pellet was resuspended in preparative buffer and stored at −20° C. On the day of the assay, tissue was thawed, centrifuged at 40,000 g for 20 minutes and then resuspended in PBS (Dulbecco's Phosphate Buffered Saline, Life Technologies, pH 7.4) to a final concentration of 2-3 mg protein/mL. Protein concentrations were determined using the Pierce BCA Protein Assay kit (Pierce Biotechnology, Rockford, Ill.), with bovine serum albumin as the standard. Preparation of membranes from clonal cell lines. Cells were harvested in ice-cold PBS, pH 7.4, then homogenized with a polytron (Brinkmann Instruments, Westbury, N.Y.). Homogenates were centrifuged at 40,000 g for 20 minutes (4° C.). The pellet was resuspended in PBS and protein concentration determined using the Pierce BCA Protein Assay kit (Pierce Biotechnology, Rockford, Ill.).
(§3) Competition binding to receptors in membrane preparations. Binding to nicotinic receptors was assayed on membranes using standard methods adapted from published procedures (Lippiello and Fernandes, 1986; Davies et al., 1999). In brief, membranes were reconstituted from frozen stocks (approximately 0.2 mg protein) and incubated for 2 h on ice in […] assay buffer (PBS) in the presence of competitor compound (0.001 nM to […]) and radioligand. [^3H]-nicotine (L-(−)-[N-methyl-3H]-nicotine, 69.5 Ci/mmol, Perkin-Elmer Life Sciences) was used for human α4β2 binding studies. [^3H]-epibatidine (52 Ci/mmol, Perkin-Elmer Life Sciences) was used for binding studies at the other receptor subtypes. Incubation was terminated by rapid filtration on a multimanifold tissue harvester (Brandel, Gaithersburg, Md.) using GF/B filters presoaked in 0.33% polyethyleneimine (w/v) to reduce non-specific binding. Filters were washed 3 times and the radioactivity retained was determined by liquid scintillation counting.
(§4) Binding data analysis. Binding data were expressed as percent total control binding. Replicates for each point were averaged and plotted against the log of drug concentration. […]

[2] = biological target: T1, Rat α4β2 (Rattus norvegicus, UniProt P09483+P12390); experiment: Competition binding to rat α4β2 receptors in membrane preparations
T1 construct: Preparation of membranes from rat tissues; Rat cortices were obtained from Analytical Biological Services; tissue Analytical Biological Services, Incorporated (ABS, Wilmington, Del.); host or cells: rat cortex membranes (female Sprague-Dawley)
Description: as §2, §3
Binding data analysis. Binding data were expressed as percent total control binding. Replicates for each point were averaged and plotted against the log of drug concentration. The IC50 (concentration of the compound that produces 50% inhibition of binding) was determined by least squares non-linear regression using GraphPad Prism software (GraphPAD, San Diego, Calif.). Ki was calculated using the Cheng-Prusoff equation (Cheng and Prusoff, 1973).

[3] = biological target: T2, Human α7 (Homo sapiens, UniProt P36544); experiment: Competition binding to human α7 receptors in membrane preparations
T2 construct: host or cells: HEK cells co-expressing RIC3
Description: as §1, §2, §3, §4

[4] = membranes, [3H]-nicotine competition, Ki by Cheng-Prusoff, read-out: human α4β2 Ki
[5] = membranes, [3H]-epibatidine competition, Ki by Cheng-Prusoff, read-out: Human α7 Ki
[6] = membranes, [3H]-epibatidine competition, Ki by Cheng-Prusoff, read-out: Rat α4β2 Ki

With CN1CC2CN(c3ccc(Cl)nn3)CC(C1)O2 [3-(6-chloropyridazin-3-yl)-7-methyl-9-oxa-3,7-diazabicyclo[3.3.1]nonane] the Ki [1, 4] was 29 µM.

With N#Cc1ncc(N2CC3CNCC(C2)O3)cc1OC(F)F [3-(6-cyano-5-(difluoromethoxy)pyridin-3-yl)-9-oxa-3,7-diazabicyclo[3.3.1]nonane] the Ki [2] was 0.00012 µM, the Ki [3, 5] was 0.94 µM and the Ki [1, 4] was 0.00026 µM.

N#Cc1ccncc1N1CC2CNCC(C1)O2 [3-(4-cyanopyridin-3-yl)-9-oxa-3,7-diazabicyclo[3.3.1]nonane] showed a Ki [1, 4] of 0.86 µM.

Clc1ncc(N2CC3CNCC(C2)O3)cc1C1CC1 [3-(5-cyclopropyl-6-chloropyridin-3-yl)-9-oxa-3,7-diazabicyclo[3.3.1]nonane] gave a Ki [2] of 0.014 µM, a Ki [3] of 0.087 µM and a Ki [1, 4] of 0.00018 µM.

In the case of CN1CC2CN(c3cnccc3Cl)CC(C1)O2 [3-(4-chloropyridin-3-yl)-7-methyl-9-oxa-3,7-diazabicyclo[3.3.1]nonane], the Ki [1, 4] is reported as 0.18 µM.

Work on COc1cc(N2CC3CNCC(C2)O3)cnc1F [3-(5-methoxy-6-fluoropyridin-3-yl)-9-oxa-3,7-diazabicyclo[3.3.1]nonane] yielded a Ki [2, 6] of 0.0011 µM, a Ki [3, 5] of 1 µM and a Ki [1] of 0.00043 µM.

Work on CN1CC2CN(c3ccc(C(F)(F)F)nc3)CC(C1)O2 [3-(6-trifluoromethyl-pyridin-3-yl)-7-methyl-9-oxa-3,7-diazabicyclo[3.3.1]nonane] yielded a Ki [1, 4] of 1 µM.

For N#Cc1cncc(N2CC3CNCC(C2)O3)c1 [3-(5-cyanopyridin-3-yl)-9-oxa-3,7-diazabicyclo[3.3.1]nonane], the Ki [2] was 0.011 µM, the Ki [3, 5] was 2 µM and the Ki [1, 4] was 0.0027 µM.

c1ccc(-c2ccc(N3CC4CNCC(C3)O4)nn2)cc1 [3-(6-phenylpyridazin-3-yl)-9-oxa-3,7-diazabicyclo[3.3.1]nonane] showed a Ki [1, 4] of 0.38 µM.

Work on COc1ccncc1N1CC2CNCC(C1)O2 [3-(4-methoxypyridin-3-yl)-9-oxa-3,7-diazabicyclo[3.3.1]nonane] yielded a Ki [2, 6] of 0.58 µM and a Ki [1, 4] of 0.12 µM.

Molecule COc1cc(N2CC3CNCC(C2)O3)cnc1Cl [3-(5-methoxy-6-chloropyridin-3-yl)-9-oxa-3,7-diazabicyclo[3.3.1]nonane] has a Ki [2] of 0.001 µM and a Ki [1, 4] of 0.0004 µM.

Clc1cccc(N2CC3CNCC(C2)O3)c1Cl [3-(2,3-dichlorophenyl)-9-oxa-3,7-diazabicyclo[3.3.1]nonane] showed a Ki [1, 4] of 9.6 µM.

Molecule N#Cc1cc(N2CC3CNCC(C2)O3)cnc1F [3-(5-cyano-6-fluoropyridin-3-yl)-9-oxa-3,7-diazabicyclo[3.3.1]nonane] has a Ki [2] of 0.024 µM, a Ki [3, 5] of 16 µM and a Ki [1, 4] of 0.019 µM.

CN1CC2CN(c3cncc(Oc4ccccc4Cl)c3)CC(C1)O2 [3-(5-(2-chlorophenoxy)pyridin-3-yl)-7-methyl-9-oxa-3,7-diazabicyclo[3.3.1]nonane] was tested, and the Ki [2, 6] was 1.2 µM and the Ki [1, 4] was 0.084 µM.

With FC1(F)Oc2ccc(N3CC4CNCC(C3)O4)cc2O1 [3-(2,2-difluorobenzo[d][1,3]dioxol-5-yl)-9-oxa-3,7-diazabicyclo[3.3.1]nonane] the Ki [3, 5] was 90 µM and the Ki [1, 4] was 0.7 µM.

With CN1CC2CN(c3cncnc3)CC(C1)O2 [3-(pyrimidin-5-yl)-7-methyl-9-oxa-3,7-diazabicyclo[3.3.1]nonane] the Ki [1, 4] was 0.27 µM.

Molecule CN1CC2CN(c3ccc(F)nc3)CC(C1)O2 [3-(6-fluoropyridin-3-yl)-7-methyl-9-oxa-3,7-diazabicyclo[3.3.1]nonane] has a Ki [2, 6] of 1.1 µM and a Ki [1, 4] of 0.14 µM.

In the case of Fc1cccc(N2CC3CNCC(C2)O3)c1F [3-(2,3-difluorophenyl)-9-oxa-3,7-diazabicyclo[3.3.1]nonane], the Ki [1, 4] is reported as 0.26 µM.

With Cc1ccc(N2CC3CN(C)CC(C2)O3)cn1 [3-(6-methylpyridin-3-yl)-7-methyl-9-oxa-3,7-diazabicyclo[3.3.1]nonane] the Ki [2, 6] was 1.7 µM and the Ki [1, 4] was 0.15 µM.

Work on CN1CC2CN(c3cncc(C#N)c3)CC(C1)O2 [3-(5-cyanopyridin-3-yl)-7-methyl-9-oxa-3,7-diazabicyclo[3.3.1]nonane] yielded a Ki [1, 4] of 0.26 µM.

Fc1cc(F)cc(N2CC3CNCC(C2)O3)c1 [3-(3,5-difluorophenyl)-9-oxa-3,7-diazabicyclo[3.3.1]nonane] showed a Ki [2] of 0.097 µM and a Ki [1, 4] of 0.027 µM.

With COc1cccc(N2CC3CN(C)CC(C2)O3)c1 [3-(3-methoxyphenyl)-7-methyl-9-oxa-3,7-diazabicyclo[3.3.1]nonane] the Ki [1, 4] was 1.6 µM.

For COc1ccc(N2CC3CNCC(C2)O3)cn1 [3-(6-methoxypyridin-3-yl)-9-oxa-3,7-diazabicyclo[3.3.1]nonane], the Ki [1, 4] was 0.2 µM.

Brc1cncc(N2CC3CNCC(C2)O3)c1 [3-(5-bromopyridin-3-yl)-9-oxa-3,7-diazabicydo[3.3.1]nonane] was tested, and the Ki [2] was 0.0027 µM and the Ki [1, 4] was 0.0021 µM.

CN1CC2CN(c3cccc(Cl)c3Cl)CC(C1)O2 was tested, and the Ki [1, 4] was 5.2 µM.

For CN1CC2CN(c3cncc(Oc4ccc(Cl)c(Cl)c4)c3)CC(C1)O2 [3-(5-(3,4-dichlorophenoxy)pyridin-3-yl)-7-methyl-9-oxa-3,7-diazabicyclo[3.3.1]nonane], the Ki [2, 6] was 0.4 µM and the Ki [1, 4] was 0.062 µM.

With CN1CC2CN(c3cnc(Br)nc3)CC(C1)O2 [3-(2-bromopyrimidin-5-yl)-7-methyl-9-oxa-3,7-diazabicyclo[3.3.1]nonane] the Ki [1, 4] was 2 µM.

In the case of c1ccc(N2CC3CNCC(C2)O3)nc1 [3-(pyridin-2-yl)-9-oxa-3,7-diazabicyclo[3.3.1]nonane], the Ki [2, 6] is reported as 0.35 µM and the Ki [1, 4] is reported as 0.1 µM.

In the case of CN1CC2CN(c3cc(F)cc(F)c3)CC(C1)O2 [3-(3,5-difluorophenyl)-7-methyl-9-oxa-3,7-diazabicyclo[3.3.1]nonane], the Ki [2, 6] is reported as 0.51 µM and the Ki [1, 4] is reported as 0.086 µM.

[O-][n+]1cc(F)cc(N2CC3CNCC(C2)O3)c1 [3-(5-fluoro-pyridine-1-oxide-3-yl)-9-oxa-3,7-diazabicyclo[3.3.1]nonane] was tested, and the Ki [3, 5] was 54 µM and the Ki [1, 4] was 0.59 µM.

For CN(C)c1ccc(N2CC3CNCC(C2)O3)cn1 [3-(6-dimethylaminopyridin-3-yl)-9-oxa-3,7-diazabicyclo[3.3.1]nonane], the Ki [1, 4] was 1.2 µM.

Molecule CN1CC2CN(c3cncc(Cl)c3)CC(C1)O2 [3-(5-chloropyridin-3-yl)-7-methyl-9-oxa-3,7-diazabicyclo[3.3.1]nonane] has a Ki [2, 6] of 1.6 µM and a Ki [1, 4] of 0.077 µM.

For CN1CC2CN(c3cnc(Cl)c(Cl)c3)CC(C1)O2 [3-methyl-7-(5,6-dichloropyridin-3-yl)-9-oxa-3,7-diazabicyclo[3.3.1]nonane], the Ki [2] was 0.033 µM and the Ki [1, 4] was 0.024 µM.

Work on CN1CC2CN(c3ccc(Cl)nc3)CC(C1)O2 [3-(6-chloropyridin-3-yl)-7-methyl-9-oxa-3,7-diazabicyclo[3.3.1]nonane] yielded a Ki [2, 6] of 1.8 µM and a Ki [1, 4] of 0.12 µM.

Molecule Clc1ccncc1N1CC2CNCC(C1)O2 [3-(4-chloropyridin-3-yl)-9-oxa-3,7-diazabicydo[3.3.1]nonane] has a Ki [1, 4] of 0.25 µM.
